Values of other authors in publication PMC10797624, “Multitracer Approach to Understanding the Complexity of Reactive Astrogliosis in Alzheimer’s Brains” (ACS Chemical Neuroscience, 2023).

Experiments:
[1] = test system: [^3H]-BU99008 binding sites; set-up: method as in PMID 33888872; settings: L-deprenyl vs [^3H]-BU99008
[2] = test system: MAO-B; set-up: method as in PMID 32646880; settings: small brain section autoradiography

Compound | binding sites and affinities vs [^3H]-BU99008 [1] | displacement of [^18F]-SMBT-1 binding [2]
C#CCN(C)[C@H](C)Cc1ccccc1 [L-deprenyl] | multiple binding sites with pico- and micromolar affinities | –
NCCNC(=O)c1ccc(Cl)cn1 [lazabemide] | – | fully displaced
